Laboratory results as given in ChEMBL document CHEMBL4354827, “Discovery of Novel, Potent, Brain-Permeable, and Orally Efficacious Positive Allosteric Modulator of α7 Nicotinic Acetylcholine Receptor [4-(5-(4-Chlorophenyl)-4-methyl-2-propionylthiophen-3-yl)benzenesulfonamide]: Structure-Activity Relationship and Preclinical Characterization” (J Med Chem, 2020).
Calls of active or inactive are those of the source. The calls are words filed in the database; no cut-off is given here.

What was measured:
[1] = Brain to plasma permeability coefficient, Kp in Wistar rat at 10 mg/kg, po after 8 hrs by LC-MS/MS analysis; type: ADME, organism-based
[2] = tested on: Rattus norvegicus; assay: Memory enhancement effect in scopolamine-induced Wistar rat model of amnesia assessed as increase in discrimination index at 0.15 mg/kg, po for 7 days and measured on day 8 by novel object recognition test (reference value: 0.21); type: functional
[3] = tested on: Rattus norvegicus; assay: Memory enhancement effect in time-delay induced Wistar rat model of amnesia assessed as exploration time for familiar object in retention trial at 0.05 mg/kg, po for 7 days and measured on day 8 by novel object recognition test (reference value: 10.20 sec); type: functional
[4] = tested on: Rattus norvegicus; assay: Memory enhancement effect in time-delay induced Wistar rat model of amnesia assessed as exploration time for object2 at 1 mg/kg, po administered as single dose after acquisition trial by novel object recognition test (reference value: 21.07 sec); type: functional
[5] = Brain to plasma permeability coefficient, Kp in Wistar rat at 10 mg/kg, po after 24 hrs by LC-MS/MS analysis; type: ADME, organism-based
[6] = tested on: Rattus norvegicus; assay: Memory enhancement effect in scopolamine-induced Wistar rat model of amnesia assessed as exploration time for object2 in acquisition trial at 0.05 mg/kg, po for 7 days and measured on day 8 by novel object recognition test (reference value: 15.63 sec); type: functional
[7] = Metabolic stability in mouse liver microsomes assessed as compound remaining at 1 uM preincubated for 5 mins followed by NADPH addition and measured after 30 mins by LC-MS/MS analysis; type: ADME, Microsome; conditions: read-out: Stability
[8] = tested on: Rattus norvegicus; assay: Memory enhancement effect in scopolamine-induced Wistar rat model of amnesia assessed as exploration time for object2 in acquisition trial at 0.15 mg/kg, po administered as single dose and measured on day 8 by novel object recognition test (reference value: 15.63 sec); type: functional
[9] = target: T1, Cytochrome P450 2B6 (Homo sapiens, UniProt P20813); assay: Inhibition of CYP2B6 (unknown origin) up to 10 uM; type: ADME
T1 sequence (P20813 whole entry): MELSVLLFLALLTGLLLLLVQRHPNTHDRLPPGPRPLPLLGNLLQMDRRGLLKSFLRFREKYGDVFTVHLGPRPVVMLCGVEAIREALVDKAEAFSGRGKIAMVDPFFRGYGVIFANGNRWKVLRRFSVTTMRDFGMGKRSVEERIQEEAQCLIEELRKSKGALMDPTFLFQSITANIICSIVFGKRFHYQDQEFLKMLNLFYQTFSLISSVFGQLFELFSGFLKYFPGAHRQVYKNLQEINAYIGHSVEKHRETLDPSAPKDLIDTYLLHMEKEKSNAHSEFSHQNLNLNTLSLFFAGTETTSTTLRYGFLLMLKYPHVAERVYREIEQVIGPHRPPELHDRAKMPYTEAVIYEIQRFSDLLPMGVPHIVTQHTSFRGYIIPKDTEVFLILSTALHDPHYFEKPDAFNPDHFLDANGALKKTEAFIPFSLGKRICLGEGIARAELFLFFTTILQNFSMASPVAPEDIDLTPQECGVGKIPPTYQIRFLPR

[10] = tested on: Rattus norvegicus; assay: Memory enhancement effect in time-delay induced Wistar rat model of amnesia assessed as increase in discrimination index at 0.5 mg/kg, po for 7 days and measured on day 8 by novel object recognition test (reference value: 0.12); type: functional
[11] = target: Cytochrome P450 3A4 (Homo sapiens, UniProt P08684); assay: Inhibition of CYP3A4 (unknown origin) up to 10 uM; type: ADME
[12] = tested on: Rattus norvegicus; assay: Memory enhancement effect in scopolamine-induced Wistar rat model of amnesia assessed as increase in novel object discrimination index at 0.15 mg/kg, po administered as single dose and measured on day 9 by novel object recognition test (reference value: 0.21); type: functional
[13] = tested on: Rattus norvegicus; assay: Memory enhancement effect in time-delay induced Wistar rat model of amnesia assessed as exploration time for object1 in acquisition trial at 3 mg/kg, po administered as single dose and measured on day 8 by novel object recognition test (reference value: 13.95 sec); type: functional
[14] = tested on: Rattus norvegicus; assay: Improvement in social recognition time delay-induced Sprague-Dawley rat model of amnesia assessed as reduction in recognition index at 0.15 mg/kg, po for 7 days and measured on day 9 (reference value: 1.05); type: functional
[15] = tested on: Rattus norvegicus; assay: Memory enhancement effect in scopolamine-induced Wistar rat model of amnesia assessed as increase in novel object discrimination index at 0.5 mg/kg, po administered as single dose and measured on day 9 by novel object recognition test (reference value: 0.21); type: functional
[16] = Oral bioavailability in BALB/c mouse at 10 mg/kg after 0.25 to 144 hrs by LC-MS/MS analysis; type: ADME, organism-based; conditions: in vivo
[17] = Oral bioavailability in Wistar rat at 10 mg/kg after 0.25 to 144 hrs by LC-MS/MS analysis; type: ADME, organism-based; conditions: in vivo
[18] = target: Neuronal acetylcholine receptor subunit alpha-7 (Homo sapiens, UniProt P36544); assay: Positive allosteric modulatory activity against alpha7 nAChR in human IMR-32 cells assessed as potentiation of PNU-282987-induced Ca2+ […] in presence of alpha-bungarotoxin/methyllycaconitine by FLIPR assay; type: cell-based
[19] = Protein binding in dog plasma assessed as unbound fraction at 5 uM incubated for 16 hrs under shaking condition by LC/MS/MS based rapid equilibrium dialysis method; type: ADME, cell-free, Canis lupus familiaris
[20] = tested on: Rattus norvegicus; assay: Improvement in social recognition time delay-induced Sprague-Dawley rat model of amnesia assessed as reduction in recognition index 3 mg/kg, po administered as single dose prior to 1 hr training and measured after 30 mins (reference value: 1); type: functional
[21] = Drug level in Sprague-Dawley rat plasma at 0.15 mg/kg, po for 7 days; type: ADME, organism-based
[22] = Cmax in Beagle dog at 1 mg/kg, iv after 0.083 to 144 hrs by LC-MS/MS analysis; type: ADME, organism-based, Canis lupus familiaris; parameters: dose 1 mg/kg, route intravenous; conditions: in vivo
[23] = tested on: Rattus norvegicus; assay: Memory enhancement effect in time-delay induced Wistar rat model of amnesia assessed as exploration time for familiar object in retention trial at 0.15 mg/kg, po for 7 days and measured on day 8 by novel object recognition test (reference value: 10.20 sec); type: functional
[24] = Protein binding in mouse plasma assessed as unbound fraction at 5 uM incubated for 16 hrs under shaking condition by LC/MS/MS based rapid equilibrium dialysis method; type: ADME, cell-free
[25] = Drug concentration in Wistar rat brain at 10 mg/kg, po after 48 hrs by LC-MS/MS analysis; type: ADME, organism-based; conditions: read-out: Drug uptake
[26] = Tmax in Wistar rat at 1 mg/kg, iv after 0.083 to 144 hrs by LC-MS/MS analysis; type: ADME, organism-based; conditions: in vivo
[27] = Tmax in Wistar rat at 10 mg/kg, po after 0.25 to 144 hrs by LC-MS/MS analysis; type: ADME, organism-based; conditions: in vivo
[28] = tested on: Rattus norvegicus; assay: Memory enhancement effect in time-delay induced Wistar rat model of amnesia assessed as increase in novel object discrimination at 3 mg/kg, po administered as single dose after acquisition trial by novel object recognition test (reference value: 0.08); type: functional
[29] = tested on: Rattus norvegicus; assay: Memory enhancement effect in time-delay induced Wistar rat model of amnesia assessed as increase in discrimination index at 0.15 mg/kg, po for 7 days and measured on day 8 by novel object recognition test (reference value: 0.12); type: functional

Chain of Cytochrome P450 3A4 (P08684 whole entry): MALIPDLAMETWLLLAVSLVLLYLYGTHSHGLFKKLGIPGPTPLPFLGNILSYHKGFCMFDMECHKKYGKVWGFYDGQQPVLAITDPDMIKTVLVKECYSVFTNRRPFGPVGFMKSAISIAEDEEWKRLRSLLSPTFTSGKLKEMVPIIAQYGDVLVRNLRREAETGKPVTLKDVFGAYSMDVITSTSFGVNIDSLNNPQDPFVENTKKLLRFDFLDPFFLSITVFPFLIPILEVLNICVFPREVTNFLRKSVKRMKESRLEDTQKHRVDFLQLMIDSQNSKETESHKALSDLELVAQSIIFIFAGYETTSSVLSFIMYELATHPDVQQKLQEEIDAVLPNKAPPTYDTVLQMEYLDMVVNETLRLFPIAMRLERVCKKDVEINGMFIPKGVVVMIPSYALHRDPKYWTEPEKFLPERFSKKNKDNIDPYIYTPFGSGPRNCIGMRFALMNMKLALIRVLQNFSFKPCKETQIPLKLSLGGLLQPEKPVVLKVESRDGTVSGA
Chain of Neuronal acetylcholine receptor subunit alpha-7 (P36544 whole entry): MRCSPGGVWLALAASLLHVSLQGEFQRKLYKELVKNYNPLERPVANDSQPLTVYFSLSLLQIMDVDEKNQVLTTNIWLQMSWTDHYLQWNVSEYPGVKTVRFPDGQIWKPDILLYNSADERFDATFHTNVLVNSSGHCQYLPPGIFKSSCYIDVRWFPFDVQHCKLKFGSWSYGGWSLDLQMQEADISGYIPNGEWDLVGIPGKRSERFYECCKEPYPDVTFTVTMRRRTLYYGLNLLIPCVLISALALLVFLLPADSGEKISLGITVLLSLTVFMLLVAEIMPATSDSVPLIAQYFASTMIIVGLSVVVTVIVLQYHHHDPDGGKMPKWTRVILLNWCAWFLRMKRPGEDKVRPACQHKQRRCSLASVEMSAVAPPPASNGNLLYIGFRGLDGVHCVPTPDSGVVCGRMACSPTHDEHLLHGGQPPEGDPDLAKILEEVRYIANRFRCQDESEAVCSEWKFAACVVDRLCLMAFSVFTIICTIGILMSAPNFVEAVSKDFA

CCC(=O)c1sc(-c2ccc(Cl)cc2)c(C)c1-c1ccc(S(N)(=O)=O)cc1 gave a Kp at 8 h [1] of 7.7, an Activity_index [2] of 0.5 and a Time [3] of 7.64 s. The Time [4] was 25.36 s, the Kp at 24 h [5] was 8.85 and the Time [6] was 18.31 s. For the same compound, the remaining at 0.5 h, 1 µM [7] was 96%, the Time [8] was 13.41 s and the “inhibition (INH)” value [9] was “Not Active”. For the same compound, the Activity_index [10] was 0.58, the “inhibition (INH)” value [11] was “Not Active” and the Activity_index [12] was 0.5. For the same compound, the Time [13] was 25.56 s, the Activity_index [14] was 0.56 and the Activity_index [15] was 0.45. The bioavailability [16] was 57%, the bioavailability [17] was 74% and the Activity [18] was “inactive”. It also gave a fraction unbound at 16 h, 5 µM [19] of 0.0031, an Activity_index [20] of 0.47 and a concentration at 168 h [21] of 320 nM. The Cmax [22] was 3000 nM, the Time [23] was 3.79 s and the fraction unbound at 16 h, 5 µM [24] was 0.0116. The concentration at 48 h [25] was 5530 nM, the Tmax [26] was 4.8 min and the Tmax [27] was 5.2 h. It also gave an Activity_index [28] of 0.5 and an Activity_index [29] of 0.3.
